Key:
[1] = system: Staphylococcus aureus KCTC 1621; experiment: Growth inhibition, overlay clear zone test; type: cell-based; conditions: overlay on RCM agar, about 40 hours; triclosan positive control 10 mg/ml
Source text: (§1) The effect of growth inhibition of S. aureus and C. acnes was confirmed by observing formation of a clear zone. […] The experiment was progressed, expecting that S. aureus and C. acnes around Cutibacterium granulosum GENSC02 could not grow and they became transparent, if Cutibacterium granulosum GENSC02 had the effect of inhibiting the growth of bacteria. The Cutibacterium granulosum GENSC02 culture broth was collected with a platinum loop and was anaerobically cultured in a thin RCM agar plate at 37° C. for 72 hours by drawing a line about 2.5 cm. After confirming that Cutibacterium granulosum GENSC02 sufficiently grew, S. aureus and C. acnes strains adjusted to 10^4 cfu/ml were inoculated in 10 ml RCM agar at about 45° C. which was not yet solidified, and they were well suspended before the medium was hardened, and they were evenly solidified by pouring them on the agar plate in which Cutibacterium granulosum GENSC02 grew. In the solidified agar plate, S. aureus and C. acnes were further cultured anaerobically at 37° C. for about 40 hours and about 72 hours, respectively, to observe the size of the clear zone appearing around Cutibacterium granulosum GENSC02. As the negative control group, phosphate-buffered saline (PBS) was used, and as the positive control group, triclosan was used, and S. aureus and C. acnes were treated at an amount of 10 mg/ml and 200 mg/ml, respectively.

[2] = system: Cutibacterium acnes ATCC 6919; experiment: Growth inhibition, overlay clear zone test; type: cell-based; conditions: overlay on RCM agar, about 72 hours; triclosan positive control 200 mg/ml
Source text: as §1

claudin-1 = experiment: Skin barrier function: claudin-1 RNA expression in HaCaT cell line; type: cell-based, human; conditions: 24 hours, retinoic acid 1 μM (positive control)
filaggrin = experiment: Skin barrier function: filaggrin RNA expression in HaCaT cell line; type: cell-based, human; conditions: 24 hours, retinoic acid 1 μM (positive control)
aquaporin = experiment: Skin moisturizing function: aquaporin RNA expression in HaCaT cell line; type: cell-based, human; conditions: 24 hours, retinoic acid 1 μM (positive control)
Method: (§2) To investigate a function for a skin moisturizing effect by GENSCO2 fermented filtrates, it was confirmed that the fermented filtrates of GENSCO2 were treated to the HaCaT cell line by % to the cell culture solution, and then were reacted for 24 hours to confirm the expression of HAS3 (hyaluronic acid synthase) and aquaporin which were markers of the skin moisturizing function on RNA.

[3] = system: HAS3 (hyaluronic acid synthase); experiment: Skin moisturizing function: HAS3 RNA expression in HaCaT cell line; type: cell-based, human; conditions: 24 hours, retinoic acid 1 μM (positive control)
Method: as §2

Structure (SMILES) | growth inhibition of S. aureus (clear zone) [1] | growth inhibition of C. acnes (clear zone) [2] | expression of claudin-1 (claudin-1) [times] | expression of filaggrin (filaggrin) [times] | expression of aquaporin (aquaporin) | expression of HAS3 (hyaluronic acid synthase) [3]
Oc1cc(Cl)ccc1Oc1ccc(Cl)cc1Cl [triclosan] | much smaller area than GENSC02 treatment | much smaller area than GENSC02 treatment | – | – | – | –
CC1=C(/C=C/C(C)=C/C=C/C(C)=C/C(=O)O)C(C)(C)CCC1 [retinoic acid] | – | – | 1.5 | 1.5 | 2˜4 times | 2˜4 times
